# Molecular target: T1, mouse TRPM3α2 (mTRPM3) ion channel (Mus musculus, UniProt J9SQF3)
# T1 construct: expressed in transfected cells; host or cells: flip-in HEK293
# Test: TRPM3 ion channel driven Ca2+ uptake, Fluo-4 AM assay, mTRPM3alpha2 overexpressing flip-in HEK293 cells stimulated with pregnenolone sulfate (50 μM)
# Assay type: cell-based
# Settings: mTRPM3 overexpressing HEK293 cells stimulated with pregnenolone sulfate (50 μM), activity ranges A, B, C
# Outline: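 Ca2+ influx via mouse TRPM3α2 was opened with pregnenolone sulfate (50 μM) and tracked by Fluo-4 AM fluorescence at 485/535 nm, read directly after adding about 2000 stably transfected HEK293 cells per well to compound. IC50 values come from percent inhibition scaled to vehicle and positive-control inhibitor signals.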
# T1 sequence (J9SQF3 1-1709 isoform J9SQF3-12): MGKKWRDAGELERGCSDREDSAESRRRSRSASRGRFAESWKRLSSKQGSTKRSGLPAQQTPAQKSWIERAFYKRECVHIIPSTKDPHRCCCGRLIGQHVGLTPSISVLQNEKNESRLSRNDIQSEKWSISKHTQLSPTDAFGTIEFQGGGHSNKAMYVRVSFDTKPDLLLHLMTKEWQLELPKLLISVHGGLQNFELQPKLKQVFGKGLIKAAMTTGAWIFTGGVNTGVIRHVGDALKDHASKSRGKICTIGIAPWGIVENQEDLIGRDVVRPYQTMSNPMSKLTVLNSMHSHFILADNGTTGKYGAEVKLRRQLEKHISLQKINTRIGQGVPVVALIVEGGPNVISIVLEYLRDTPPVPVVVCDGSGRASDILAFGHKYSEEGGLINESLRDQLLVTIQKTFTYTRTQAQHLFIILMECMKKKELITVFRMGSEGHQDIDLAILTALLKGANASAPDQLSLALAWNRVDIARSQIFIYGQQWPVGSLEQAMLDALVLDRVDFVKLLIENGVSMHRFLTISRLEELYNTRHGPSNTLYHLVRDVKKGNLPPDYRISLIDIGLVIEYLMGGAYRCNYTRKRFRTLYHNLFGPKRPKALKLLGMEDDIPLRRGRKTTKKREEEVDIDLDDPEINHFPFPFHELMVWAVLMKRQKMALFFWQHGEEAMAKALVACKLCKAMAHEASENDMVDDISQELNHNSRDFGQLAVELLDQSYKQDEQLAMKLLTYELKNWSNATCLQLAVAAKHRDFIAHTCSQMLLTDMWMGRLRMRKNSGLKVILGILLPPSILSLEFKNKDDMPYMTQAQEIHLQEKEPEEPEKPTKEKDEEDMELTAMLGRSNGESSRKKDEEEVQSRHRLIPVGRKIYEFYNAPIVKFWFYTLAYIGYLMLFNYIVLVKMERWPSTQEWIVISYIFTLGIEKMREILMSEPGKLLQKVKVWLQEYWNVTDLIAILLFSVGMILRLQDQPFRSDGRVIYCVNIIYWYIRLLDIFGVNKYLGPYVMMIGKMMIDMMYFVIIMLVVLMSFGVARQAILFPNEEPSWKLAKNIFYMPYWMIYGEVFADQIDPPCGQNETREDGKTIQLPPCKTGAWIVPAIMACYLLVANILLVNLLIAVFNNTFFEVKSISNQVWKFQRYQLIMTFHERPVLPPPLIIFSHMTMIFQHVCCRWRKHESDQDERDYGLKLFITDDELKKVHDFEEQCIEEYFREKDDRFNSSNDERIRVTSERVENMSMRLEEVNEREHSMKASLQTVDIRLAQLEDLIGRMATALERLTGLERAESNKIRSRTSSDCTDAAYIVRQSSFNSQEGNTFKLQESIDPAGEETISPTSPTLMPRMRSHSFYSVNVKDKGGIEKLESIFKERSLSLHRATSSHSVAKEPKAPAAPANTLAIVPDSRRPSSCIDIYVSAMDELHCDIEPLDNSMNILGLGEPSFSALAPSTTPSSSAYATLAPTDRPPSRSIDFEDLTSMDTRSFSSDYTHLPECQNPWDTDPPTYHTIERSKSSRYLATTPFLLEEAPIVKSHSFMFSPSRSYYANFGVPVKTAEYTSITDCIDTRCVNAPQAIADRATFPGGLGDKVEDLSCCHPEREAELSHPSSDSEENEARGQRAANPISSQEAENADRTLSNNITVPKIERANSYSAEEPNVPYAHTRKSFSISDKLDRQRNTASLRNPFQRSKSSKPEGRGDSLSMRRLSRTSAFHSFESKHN
row,IC50 [µM],Structure (SMILES)
1,1 to 20,"Cc1ncsc1COc1ccc2nn(C)c(C(=O)NC3CCOCC3)c2c1 [Cpd 115, 2-methyl-5-[(4-methyl-1,3-thiazol-5-yl)methoxy]-N-(oxan-4-yl)-2H-indazole-3-carboxamide]"
2,< 1,"Cc1ncsc1COc1ccc2nn(C)c(C(=O)N[C@@H](CO)C(N)=O)c2c1 [Cpd 116, (2S)-3-hydroxy-2-({2-methyl-5-[(4-methyl-1,3-thiazol-5-yl)methoxy]-2H-indazol-3-yl}formamido)propanamide]"
3,> 20,"Cc1ncc(COc2ccc3nn(C)c(C(=O)N[C@H](C)C(N)=O)c3c2)s1 [Cpd 117, (2R)-2-({2-methyl-5-[(2-methyl-1,3-thiazol-5-yl)methoxy]-2H-indazol-3-yl}formamido)propanamide]"
4,1 to 20,"Cc1ncsc1COc1ccc2nn(C)c(C(=O)N[C@H](C)C(N)=O)c2c1 [Cpd 118, (2R)-2-({2-methyl-5-[(4-methyl-1,3-thiazol-5-yl)methoxy]-2H-indazol-3-yl}formamido)propanamide]"
5,1 to 20,"Cc1ncc(COc2ccc3nn(C)c(C(=O)N[C@@H](C)C(N)=O)c3c2)s1 [Cpd 119, (2S)-2-({2-methyl-5-[(2-methyl-1,3-thiazol-5-yl)methoxy]-2H-indazol-3-yl}formamido)propanamide]"
6,> 20,"Cc1ncc(COc2ccc3nn(C)c(C(=O)NC4CCOCC4)c3c2)s1 [Cpd 120, 2-methyl-5-[(2-methyl-1,3-thiazol-5-yl)methoxy]-N-(oxan-4-yl)-2H-indazole-3-carboxamide]"
7,< 1,"C[C@@H](NC(=O)c1c2cc(OCC3CC3)ccc2nn1C)C(N)=O [Cpd 121, (2R)-2-{[5-(cyclopropylmethoxy)-2-methyl-2H-indazol-3-yl]formamido}propanamide]"
8,1 to 20,"Cn1nc2ccc(OCc3cccnc3C(F)(F)F)cc2c1C(=O)O [Cpd 122, 2-methyl-5-((2-(trifluoromethyl)pyridin-3-yl)methoxy)-2H-indazole-3-carboxylic acid]"
9,> 20,"Cn1nccc1COc1ccc2nn(C)c(C(=O)O)c2c1 [Cpd 123, 2-methyl-5-[(1-methyl-1H-pyrazol-5-yl)methoxy]-2H-indazole-3-carboxylic acid]"
10,> 20,"Cc1ncc(COc2ccc3nn(C)c(C(=O)NC4(CO)CCOCC4)c3c2)s1 [Cpd 124, N-[4-(hydroxymethyl)oxan-4-yl]-2-methyl-5-[(2-methyl-1,3-thiazol-5-yl)methoxy]-2H-indazole-3-carboxamide]"
11,1 to 20,"Cc1ncc(COc2ccc3nn(C)c(C(=O)N[C@@H](CO)C(N)=O)c3c2)s1 [Cpd 126, (2S)-3-hydroxy-2-({2-methyl-5-[(2-methyl-1,3-thiazol-5-yl)methoxy]-2H-indazol-3-yl}formamido)propanamide]"
12,< 1,"Cn1nc2ccc(OCc3ccccn3)cc2c1C(=O)NC(C)(CO)CO [Cpd 127, N-(1,3-dihydroxy-2-methylpropan-2-yl)-2-methyl-5-[(pyridin-2-yl)methoxy]-2H-indazole-3-carboxamide]"
13,1 to 20,"Cn1nc2ccc(OCC3CCC3)cc2c1C(=O)NC(C)(CO)CO [Cpd 129, 5-(cyclobutylmethoxy)-N-(1,3-dihydroxy-2-methylpropan-2-yl)-2-methyl-2H-indazole-3-carboxamide]"
14,< 1,"Cn1nc2ccc(OCC3CCC3)cc2c1C(=O)N[C@@H](CO)C(N)=O [Cpd 130, (2S)-2-{[5-(cyclobutylmethoxy)-2-methyl-2H-indazol-3-yl]formamido}-3-hydroxypropanamide]"
15,1 to 20,"Cc1ncc(COc2ccc3nn(C)c(C(=O)NC(C)(CO)CO)c3c2)o1 [Cpd 131, N-(1,3-dihydroxy-2-methylpropan-2-yl)-2-methyl-5-[(2-methyl-1,3-oxazol-5-yl)methoxy]-2H-indazole-3-carboxamide]"
16,> 20,"Cn1nc2ccc(OCC3CC3)cc2c1C(=O)NCC1CC1 [Cpd 133, 5-(cyclopropylmethoxy)-N-(cyclopropylmethyl)-2-methyl-2H-indazole-3-carboxamide]"
17,1 to 20,"Cn1nc2ccc(OCC3CC3)cc2c1C(=O)NC(C)(C)C(N)=O [Cpd 134, 2-{[5-(cyclopropylmethoxy)-2-methyl-2H-indazol-3-yl]formamido}-2-methylpropanamide]"
18,1 to 20,"Cn1nc2ccc(OCC3CC3)cc2c1C(=O)NC(C)(CO)CO [Cpd 135, 5-(cyclopropylmethoxy)-N-(1,3-dihydroxy-2-methylpropan-2-yl)-2-methyl-2H-indazole-3-carboxamide]"
19,1 to 20,"Cn1nc2ccc(OCC3CC3)cc2c1C(=O)N[C@H](CO)C(N)=O [Cpd 136, (2R)-2-{[5-(cyclopropylmethoxy)-2-methyl-2H-indazol-3-yl]formamido}-3-hydroxypropanamide]"
20,< 1,"Cn1nc2ccc(OCC3CC3)cc2c1C(=O)N[C@@H](CO)C(N)=O [Cpd 137, (2S)-2-{[5-(cyclopropylmethoxy)-2-methyl-2H-indazol-3-yl]formamido}-3-hydroxypropanamide]"

row,IC50 [µM],Structure (SMILES)
1,1 to 20,"C[C@@H](O)[C@H](NC(=O)c1c2cc(OCC3CC3)ccc2nn1C)C(N)=O [Cpd 138, (2S,3R)-2-{[5-(cyclopropylmethoxy)-2-methyl-2H-indazol-3-yl]formamido}-3-hydroxybutanamide]"
2,> 20,"Cn1nc2ccc(OCC3CC3)cc2c1C(=O)NCCNS(C)(=O)=O [Cpd 140, 5-(cyclopropylmethoxy)-N-(2-methanesulfonamidoethyl)-2-methyl-2H-indazole-3-carboxamide]"
3,< 1,"Cc1ncc(COc2ccc3nn(C)c(C(=O)N[C@@H](CO)C(N)=O)c3c2)o1 [Cpd 141, (2S)-3-hydroxy-2-({2-methyl-5-[(2-methyl-1,3-oxazol-5-yl)methoxy]-2H-indazol-3-yl}formamido)propanamide]"
4,1 to 20,"Cc1ncc(COc2ccc3nn(C)c(C(=O)N[C@H](C(N)=O)[C@@H](C)O)c3c2)o1 [Cpd 142, (2S,3R)-3-hydroxy-2-({2-methyl-5-[(2-methyl-1,3-oxazol-5-yl)methoxy]-2H-indazol-3-yl}formamido)butanamide]"
5,< 1,"Cn1nc2ccc(OCC3CCCC3)cc2c1C(=O)N[C@@H](CO)C(N)=O [Cpd 143, (2S)-2-{[5-(cyclopentylmethoxy)-2-methyl-2H-indazol-3-yl]formamido}-3-hydroxypropanamide]"
6,> 20,"Cn1nc2ccc(OCC3CCCC3)cc2c1C(=O)NC(C)(CO)CO [Cpd 144, 5-(cyclopentylmethoxy)-N-(1,3-dihydroxy-2-methylpropan-2-yl)-2-methyl-2H-indazole-3-carboxamide]"
7,1 to 20,"Cn1nc2ccc(OCC3CCCC3)cc2c1C(=O)NC(C)(C)C(N)=O [Cpd 145, 2-{[5-(cyclopentylmethoxy)-2-methyl-2H-indazol-3-yl]formamido}-2-methylpropanamide]"
8,> 20,"Cn1nc2ccc(OCC3(C#N)CC3)cc2c1C(=O)NC(C)(CO)CO [Cpd 146, 5-[(1-cyanocyclopropyl)methoxy]-N-(1,3-dihydroxy-2-methylpropan-2-yl)-2-methyl-2H-indazole-3-carboxamide]"
9,1 to 20,"Cc1ncc(COc2ccc3nn(C)c(C(=O)NC(CO)(CO)CO)c3c2)s1 [Cpd 147, N-[1,3-dihydroxy-2-(hydroxymethyl)propan-2-yl]-2-methyl-5-[(2-methyl-1,3-thiazol-5-yl)methoxy]-2H-indazole-3-carboxamide]"
10,1 to 20,"Cn1nc2ccc(OCC3(C#N)CC3)cc2c1C(=O)N[C@@H](CO)C(N)=O [Cpd 148, (2S)-2-({5-[(1-cyanocyclopropyl)methoxy]-2-methyl-2H-indazol-3-yl}formamido)-3-hydroxypropanamide]"
11,< 1,"Cc1ncc(COc2ccc3nn(C)c(C(=O)N[C@H](C(N)=O)[C@@H](C)O)c3c2)s1 [Cpd 149, (2S,3R)-3-hydroxy-2-({2-methyl-5-[(2-methyl-1,3-thiazol-5-yl)methoxy]-2H-indazol-3-yl}formamido)butanamide]"
12,1 to 20,"Cc1ncc(COc2ccc3nn(C)c(C(=O)NCC(F)F)c3c2)s1 [Cpd 150, N-(2,2-difluoroethyl)-2-methyl-5-[(2-methyl-1,3-thiazol-5-yl)methoxy]-2H-indazole-3-carboxamide]"
13,1 to 20,"Cn1nc2ccc(OCc3ccccn3)cc2c1C(=O)N[C@@H]1CCN(CCO)C1=O [Cpd 152, N-[(3R)-1-(2-hydroxyethyl)-2-oxopyrrolidin-3-yl]-2-methyl-5-[(pyridin-2-yl)methoxy]-2H-indazole-3-carboxamide]"
14,> 20,"Cn1nc2ccc(OCc3ccccn3)cc2c1C(=O)N[C@H]1CCN(CCO)C1=O [Cpd 153, N-[(3S)-1-(2-hydroxyethyl)-2-oxopyrrolidin-3-yl]-2-methyl-5-[(pyridin-2-yl)methoxy]-2H-indazole-3-carboxamide]"
15,1 to 20,"Cn1cc(COc2ccc3nn(C)c(C(=O)NC(C)(CO)C(N)=O)c3c2)cn1 (stereo not drawn) [Cpd 156, 3-hydroxy-2-methyl-2-({2-methyl-5-[(1-methyl-1H-pyrazol-4-yl)methoxy]-2H-indazol-3-yl}formamido)propanamide]"
16,< 1,"CCC(CO)(NC(=O)c1c2cc(OCc3ccccn3)ccc2nn1C)C(N)=O (stereo not drawn) [Cpd 189, 2-(hydroxymethyl)-2-({2-methyl-5-[(pyridin-2-yl)methoxy]-2H-indazol-3-yl}formamido)butanamide]"
17,1 to 20,"CC1CC(COc2ccc3nn(C)c(C(=O)NC(C)(CO)C(N)=O)c3c2)C1 (stereo not drawn) [Cpd 196, 3-hydroxy-2-methyl-2-({2-methyl-5-[(3-methylcyclobutyl)methoxy]-2H-indazol-3-yl}formamido)propenamide]"
18,1 to 20,"Cn1nc2ccc(OCc3ccccc3)cc2c1C(=O)O [Cpd 197, 5-(benzyloxy)-2-methyl-2H-indazole-3-carboxylic acid]"
19,1 to 20,"Cn1nc2ccc(OCc3ccccc3F)cc2c1C(=O)O [Cpd 198, 5-[(2-fluorophenyl)methoxy]-2-methyl-2H-indazole-3-carboxylic acid]"

# From US20250376461A1, “INDAZOLE DERIVATIVES FOR TREATING TRPM3-MEDIATED DISORDERS” (Katholieke Universiteit Leuven, priority 2022, published 2025)
